Test results from patent publication US10294202B2, “Pyrrolidinones as herbicides” (FMC Corporation, priority 2013, dated 2019).

How the values were obtained:
[1] = tested on: ducksalad; experiment: Test B flooded paddy test; type: in vivo, Heteranthera limosa; conditions: 250 g ai/ha, Flood; scale of 0 to 100 where 0 is no effect and 100 is complete control
How it was run: (§1)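 Paddy-water application at a 3 cm flood, young plants having two leaves. Water level maintained; greenhouse, 13–15 days; visual 0–100 control rating.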

[2] = tested on: giant foxtail; experiment: Test A pre-/postemergence herbicide test; type: in vivo, Setaria faberii
How it was run: (§2)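 Approximately 10 days after treatment in the greenhouse, plants were compared with untreated controls and given a 0–100 visual injury rating. Applications: preemergence directed soil spray; postemergence on 2–10 cm plants at the one- to two-leaf stage.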

[3] = tested on: morningglory; experiment: Test A pre-/postemergence herbicide test; type: in vivo, Ipomoea spp.
How it was run: as §2

[4] = tested on: barnyardgrass; experiment: Test A pre-/postemergence herbicide test; type: in vivo, Echinochloa crus-galli
How it was run: as §2

[5] = tested on: corn; experiment: Test A pre-/postemergence herbicide test; type: in vivo, Zea mays
How it was run: as §2

[6] = tested on: velvetleaf; experiment: Test A pre-/postemergence herbicide test; type: in vivo, Abutilon theophrasti
How it was run: as §2

[7] = tested on: pigweed; experiment: Test A pre-/postemergence herbicide test; type: in vivo, Amaranthus retroflexus
How it was run: as §2

[8] = tested on: wheat; experiment: Test A pre-/postemergence herbicide test; type: in vivo, Triticum aestivum
How it was run: as §2

[9] = tested on: rice; experiment: Test B flooded paddy test; type: in vivo, Oryza sativa; conditions: 250 g ai/ha, Flood; scale of 0 to 100 where 0 is no effect and 100 is complete control
How it was run: as §1

[10] = tested on: sedge, umbrella; experiment: Test B flooded paddy test; type: in vivo, Cyperus difformis; conditions: 250 g ai/ha, Flood; scale of 0 to 100 where 0 is no effect and 100 is complete control
How it was run: as §1

[11] = tested on: crabgrass, large; experiment: Test A pre-/postemergence herbicide test; type: in vivo, Digitaria sanguinalis
How it was run: as §2

[12] = tested on: barnyardgrass; experiment: Test B flooded paddy test; type: in vivo, Echinochloa crus-galli; conditions: 250 g ai/ha, Flood; scale of 0 to 100 where 0 is no effect and 100 is complete control
How it was run: as §1

[13] = Postemergence, 125 g ai/ha, 0 to 100 scale, 0 no effect, 100 complete control
[14] = Postemergence, 500 g ai/ha, 0 to 100 scale (0 no effect, 100 complete control)
[15] = Preemergence, 125 g ai/ha, visual rating on 0 to 100 scale (0 no effect, 100 complete control)
[16] = preemergence, 500 g ai/ha, 0 to 100 scale
[17] = Postemergence, 1000 g ai/ha, 0 to 100 scale (0 no effect, 100 complete control)
[18] = preemergence, 1000 g ai/ha, 0 to 100 scale

NC1=NCC(c2ccc(F)c(F)c2)C1C(=O)Nc1ccccc1F (centres unmarked) [Compound 95, 2-amino-4-(3,4-difluorophenyl)-N-(2-fluorophenyl)dihydro-3H-pyrrole-3-carboxamide]
Plant response rating, Ducksalad [1]: 90 | Plant response rating, Foxtail, Giant [2, 13]: 70 | Plant response rating, Foxtail, Giant [2, 14]: 80 | Foxtail, Giant plant response rating [2, 15]: 80 | Plant response rating, Foxtail, Giant [2, 16]: 90 | Plant response rating, Morningglory [3, 13]: 0 | Plant response rating, Morningglory [3, 14]: 0 | Morningglory plant response rating [3, 15]: 0 | Plant response rating, Morningglory [3, 16]: 0 | Plant response rating, Barnyardgrass [4, 13]: 80 | Plant response rating, Barnyardgrass [4, 14]: 90 | Barnyardgrass plant response rating [4, 15]: 60 | Plant response rating, Barnyardgrass ([4]; preemergence, 500 g ai/ha, 0 to 100 scale (0 no effect, 100 complete control)): 90 | Plant response rating, Corn [5, 13]: 0 | Plant response rating, Corn [5, 14]: 0 | Corn plant response rating [5, 15]: 0 | Plant response rating, Corn [5, 16]: 0 | Plant response rating, Velvetleaf [6, 13]: 0 | Plant response rating, Velvetleaf [6, 14]: 0 | Velvetleaf plant response rating [6, 15]: 0 | Plant response rating, Velvetleaf [6, 16]: 0 | Plant response rating, Pigweed [7, 13]: 0 | Plant response rating, Pigweed [7, 14]: 0 | Pigweed plant response rating [7, 15]: 0 | Plant response rating, Pigweed [7, 16]: 0 | Plant response rating, Wheat [8, 13]: 0 | Plant response rating, Wheat [8, 14]: 0 | Wheat plant response rating [8, 15]: 0 | Plant response rating, Wheat [8, 16]: 0 | Plant response rating, Rice [9]: 0 | Plant response rating, Sedge, Umbrella [10]: 0 | Plant response rating, Crabgrass, Large [11, 13]: 80 | Plant response rating, Crabgrass, Large [11, 14]: 90 | Crabgrass, Large plant response rating [11, 15]: 90 | Plant response rating, Crabgrass, Large [11, 16]: 90 | Plant response rating, Barnyardgrass [12]: 0

CON(C(=O)C1C(=O)NCC1c1ccc(F)c(F)c1)c1ccccc1[N+](=O)[O-] (centres unmarked) [Compound 243]
Plant response rating, Ducksalad [1]: 0 | Plant response rating, Foxtail, Giant [2, 17]: 20 | Plant response rating, Foxtail, Giant [2, 18]: 90 | Plant response rating, Morningglory [3, 17]: 0 | Plant response rating, Morningglory [3, 18]: 0 | Plant response rating, Barnyardgrass [4, 17]: 60 | Plant response rating, Barnyardgrass ([4]; preemergence, 1000 g ai/ha, 0 to 100 scale (0 no effect, 100 complete control)): 80 | Plant response rating, Corn [5, 17]: 0 | Plant response rating, Corn [5, 18]: 0 | Plant response rating, Velvetleaf [6, 17]: 0 | Plant response rating, Velvetleaf [6, 18]: 0 | Plant response rating, Pigweed [7, 17]: 0 | Plant response rating, Pigweed [7, 18]: 0 | Plant response rating, Wheat [8, 17]: 0 | Plant response rating, Wheat [8, 18]: 0 | Plant response rating, Rice [9]: 0 | Plant response rating, Sedge, Umbrella [10]: 0 | Plant response rating, Crabgrass, Large [11, 17]: 0 | Plant response rating, Crabgrass, Large [11, 18]: 90 | Plant response rating, Barnyardgrass [12]: 0
